One series deals with Male Wistar rats. The text has this: Although there are differences between the thermoregulatory system of rats and humans, the tails and feet pads of rats function as thermoregulatory organs in a similar fashion to human skin. The rat tail skin and feet pads are exposed and not covered by fur. By controlling the blood flow to the tail skin and feet pads, the rat controls some of its heat dissipation to the environment. Only about 30% of the rat heat loss is regulated by the tail—much less than the role of the skin in humans.
Male Wistar rats, each about 400 g mass, were divided into three groups: a control group (C) of 8 rats, a test first group (A) of 7 rats, and a third test group (B) of 5 rats. All rats had test composition applied to the tail skin and the feet pads. All experiments were conducted at 23° C. ambient room temperature. All groups went though an anesthesia period of one hour (t=0 is time of start of anesthesia), and a follow-up period of 3 hours after end of anesthesia. Core body temperature (CBT) and tail skin temperature of the rats was measured using a thermocouple-based digital thermometer with 0.1° C. sensitivity.
For test group A, the cream was identical to that used for the control group, except it contained 6 wt. % epinephrine, a vasoconstrictor. The cream for test group B was the same as that for group A, except that the cream contained 20 wt. % penetration enhancer.
The cream on both control group C and test group A was applied at two times: first, concomitantly with application of anesthesia (t=0), and again at 20 min into anesthesia (t=20 m=⅓ h). CBT and tail temperatures were measured at t=0, 20, 40, 60, 120, 180 and 240 minutes.
In test group (B), two changes were made to the experimental procedure. First, the concentration of penetration enhancer (propylene glycol) in the cream was doubled to 20 wt. %. Second, the time of first cream application was done at 30 min before anesthesia (t=−30 min) and the second cream application was given with initiation of administration of anesthetic (t=0).

The next series deals with pigs. The settings on record: 6 wt.% epinephrine, 10 wt.% propylene glycol cream at t=-40 min and t=0; after 130 minutes; room 20° C.
The conditions of series [1]: cited from earlier work.
Series [2] relates to Sprague Dawley albino rats. As to the kind of experiment: Anesthesia-induced hypothermia in rats, topical norepinephrine cream on tail, feet and ears (Example 2). Format: in vivo, rat. The method, then: This experiment was similar to the experiment of Example 1, although Sprague Dawley albino rats were used. […] The test cream composition was 10% Norepinephrine vasoactive substance, 10% penetration enhancer (propylene glycol), and 80% conventional base cream.
All rats were subjected to one hour pre-anesthesia time (t=−60 to t=0), one hour anesthesia (t=0 to t=60), and 4 hours post anesthesia (t=60 to t=300). The appropriate cream was applied to the tail, feet, and ears skin surface of each rat. There were four rats in each test/control group. Vasoconstrictor cream was applied to the test group rats 3 times, at t=−60, t=−30, and t=0 min before anesthesia. Core body temperature was measured rectally. Rat tail skin temperature was measured at around the mid-length of the tail by press touching the thermometer tip to the skin surface.

For a further series, the system named is AVA. The settings on record: Pollock et al. 1996; cited from earlier work.
A further series deals with adult male Wistar rat. The settings on record: injection into the preoptic area of rat brain; cited from earlier work.
For series [3] the following is noted: humans, 1.5 mg/kg, cited from earlier work.
For the next series, the system named is humans. The settings on record: cited from earlier work.
Another series deals with rhesus monkeys. The note with it: cited from earlier work.
Series [4] concerns porcine carotid arteriovenous anastomoses. The settings on record: porcine (De Vries et al. 1998); cited from earlier work.
Where [5] appears, read: group B: 6 wt.% epinephrine, 20 wt.% propylene glycol.

Procedure for pigs: The same composition, but without the epinephrine, was prepared for use as a control. Five pigs, each weighing 55-65 kg, were divided into two groups, three in the experimental group and two in the control group. The cream was administered 40 minutes before the onset of anesthesia (t=−40 min) and again with the commencement of general anesthesia (t=0). The room temperature was 20° C., with +/−1° C. fluctuations due to the thermostat of the air conditioner. The pigs were not covered with anything other than the cream, with which there were covered over their entire skin surface. Core body temperature was measured at t=−40, 0, 30, 50, 70, 100 and 130 min.

Turning to `CNC[C@H](O)c1ccc(O)c(O)c1` [epinephrine], the “response time of vasoconstrictor action” value in the series on Male Wistar rats (6% Epinephrine cream of Example 1) was in the range of 20 to 30 min. Besides, in the series on Male Wistar rats (group A: 6 wt.% epinephrine, 10 wt.% propylene glycol), the “duration of effect of vasoconstrictor application on CBT after anesthesia” value is reported as “at least 3 hours”. Also, the “tail temperature versus control group” value with Male Wistar rats (group A: 6 wt.% epinephrine, 10 wt.% propylene glycol, 20 minutes into the experiment) is listed as “higher in the control group than in group A”. In the series with Male Wistar rats (group A: 6 wt.% epinephrine, 10 wt.% propylene glycol, after 40 minutes through the remainder of the experiment (240 min)), the “difference in CBT between test and control group” value is listed as “one”. For the same molecule, in the series on Male Wistar rats (group A: cream with 6 wt.% epinephrine, 10 wt.% propylene glycol, applied t=0 and 20 min, first 40 minutes, 23° C. ambient), the “difference in CBT between groups A and C” value is “no significant difference”. In the series with Male Wistar rats (setting [5]), the “time after which test group temperature rapidly falls off” value is on record as 2 h and the “time from anesthesia within which the CBT difference is established” value is at most 20 min. Besides, the “difference in CBT versus control group C” value in the series with Male Wistar rats (group B: 6 wt.% epinephrine, 20 wt.% propylene glycol, applied t=-30 min and t=0, maintained throughout anesthesia (t=60 m)) worked out at 2 °C. Besides, the “average decrease in CBT” value in the series on pigs was 0.7 °C. For the same molecule, in series [1] (topical), the “time after which activity diminishes significantly” value was 3 h and the “time to initial vasoconstrictor action after application” value is at most 20 min.

Regarding `NC[C@H](O)c1ccc(O)c(O)c1` [Norepinephrine, Norepinephrine Bitartrate], the “start of difference in core body temperature, time into anesthesia” value in series [2] (10% norepinephrine cream) is given as “about 20 min”. For the same molecule, the “reversal of core and tail temperatures versus control” value in [2] (10% norepinephrine cream, at about 90 min post anesthesia) is on record as “the control group temperature goes above the test group temperature”. For the same molecule, the “start of pronounced vasoconstrictor action after first application of cream” value in series [2] (10% norepinephrine cream, from skin and core temperature) is recorded as “about 80 min”. In [2] (10% norepinephrine, 10% propylene glycol cream applied t=-60, -30, 0 min, remaining anesthesia period and 60 min post anesthesia), the “test group core body temperature higher than control group” value was 1-1.5 °C. In the series with AVA, the “effect on AVA” value is “produced AVA vasoconstriction”.

For `CNC[C@H](O)c1cccc(O)c1` [phenylephrine], the “effect on AVA” value in the series with AVA was “produced AVA constriction”. Further, in series [1] (topical / dermal), the “time after application at which vasoconstricting effect begins” value is on record as “about 3 hours”.

On to `Brc1c(NC2=NCCN2)ccc2nccnc12` [UK-14304, 5-bromo-N-(4,5-dihydro-1H-imidazol-2-yl)-6-quinoxalinamine], for which the “effect on AVA” value with AVA is reported as “produced constriction of the AVA”.

Consider `COc1ccc(OC)c(C(O)C(C)N)c1` (centres unmarked) [methoxamine], for which the “effect on body temperature” value in the series on adult male Wistar rat is “resulted in hypothermia”.

Take `CNC(C)Cc1ccc2c(c1)OCO2` (centres unmarked) [MDMA, 3,4-methylenedioxymethamphetamine]: the “time of peak plasma concentration after oral administration” value in series [3] is recorded as “about two”. In series [3] (oral), the “peak plasma concentration (average)” value is 0.331 ng/mL. In addition, the hyperthermic response entry in the series on humans (humans, all doses tested (up to 2.0 mg/kg), laboratory conditions (Liechti 2000)) is “little or no hyperthermic response”. Further, the “effect on core body temperature at different ambient temperatures” value with humans (recreational users, single exposure (Freedman et al. 2005)) is “produced hyperthermia regardless of ambient temperature”. Further, the “time to flat peak of thermoregulatory disruption effect” value with rhesus monkeys (monkeys, after intravenous injection) is listed as “about 90 minutes”. Further, in the series with rhesus monkeys (monkeys, intravenous injection), the “duration of flat peak of thermoregulatory disruption effect” value is “about 3 hours”. Besides, in the series with rhesus monkeys (rhesus monkeys, ambient temperature up to 31° C. (Banks et al. 2007)), the “hyperthermic rise compared to control” value is at most 1 °C.

Consider `CNS(=O)(=O)Cc1ccc2[nH]cc(CCN(C)C)c2c1` [sumatriptan], for which the “constriction of carotid arteriovenous anastomoses” value in [4] was “potently constrict”.

For the molecule `c1ccc2c(c1)CC[C@H](CNCCCNC1=NCCCN1)O2` [alniditan], the “constriction of carotid arteriovenous anastomoses” value in series [4] is reported as “potently constrict”.

Values taken from patent US20110144209A1, “USE OF VASOCONSTRICTORS” (priority 2008, published 2011).
